Measurements published in US6469027B1, “N-methyl-D-aspartate (NMDA) receptor blockers for the prevention of atherosclerosis” (The Board of Regents of the University of Nebraska, priority 1996, dated 2002).
“Also recorded” adds a separate entry of the source.

Columns and labels:
[1] = test system: protein kinase C; assay: Distribution of protein kinase C activity in N-VSMC fractions; format: cell-based, chicken; conditions: 100 μM H[cys] for 60 min
Experimental: FIGS. 6A-6C show the distribution of protein kinase C in the presence of H[cys], TPA and TGF β1. […] Cells were harvested and separated into cytosol membrane particulate and nuclear fractions, and PKC activity measured as described in Material and Methods. The data are reported as the mean ± standard error of eight separate determinations. (B) Immunolocalization of PKC epsilon in M- and N-VSMC. Cell cultures were plated and grown for three days prior to immunohistochemistry staining of PKC epsilon in the N-VSM (bottom) contrasted with the low levels of expression of the enzyme in M-VSMC (top). The staining can be seen in cytosol, nucleus and associated with intracellular fibers. (C) Use of PKC epsilon IgG to detect enzyme in M- and N-VSMC by western blot. The C-lane represents purified recombinant PKC epsilon; M and N are samples derived from mesoderm (abdominal ) and neurocrest & (thoracic) smooth muscle cells, respectively.
Protein kinase C activity: Protein kinase C activity was determined using a method of a previously published procedure with modifications. Wrenn, R.W. et al. (supra). […] Each of these fractions was analyzed for total PKC activity in the presence and absence of calcium chloride as described previously. […]

[2] = test system: rat liver cells; conditions: cited from earlier work
[3] = test system: N-VSMC; assay: [3H]thymidine incorporation (DNA synthesis) in N-VSMC cultures; format: cell-based, chicken
Experimental: FIG. 1 is a graph illustrating homocysteine's effects on the growth of VSMC cultures. Confluent N-VSMC cultures were growth arrested by incubating cells with M199 medium containing 1 μg/ml BSA for 48 h, exposed to various concentrations of H[cys] (0.01-4000μM) for 30 h, pulse labeled for 6 h with 2 μCi/ml [^3H]-thymidine, and cell monolayers were washed twice with cold (0° C.) 10% trichloroacetic acid (TCA). The amount of [^3H]-thymidine incorporation was determined by scintillation spectrophotometry. Results are shown as the means of ±S.D.
FIGS. 2A-2C are graphs illustrating the effects of glutamate, homocysteic acid and NMDA on DNA synthesis in N-VSMC. N-VSMC were cultured and serum-deprived as described in “Experimental Procedures.” Cultures were treated with various concentrations of homocysteic acid (2A), NMDA (2B), or L-glutamate (2C) for 30 and pulsed 6h with [^3H] thymidine. All values are expressed as ±S.D. of six independent experiments completed in quadruplicate.
(§1) Smooth Muscle Culture: The thoracic (N) and abdominal (M) aorta of normal 16 and 18-day embryos were cleaned of fat, and the intima-media was isolated from the adventitia. The intima-media was enzymatically dispersed into a single cell suspensions by a combination of collagenase and elastase followed by trypsin. VSMC were placed in primary culture at a constant density of 2×10^4 cells/cm^2 in multiwell plates or 100 mm culture plates in Medium 199 supplemented with 10% fetal bovine serum (FMS) and 2 mM glutamine, in an atmosphere of 95% air: 5% Co2 at 37° C. Primary cultures were grown for 7 days before they were seeded into first passage at the same cell density and grown to confluence. Experiments were carried out between passages 3-6. Experimental conditions for all cells included 48 h in Medium 199 supplemented with 1% FBS prior to initiating and experiment.
(§2) DNA Synthesis: Growth factors were added directly to quiescent VSMCs in Medium 199 as described above. The cells were pulsed between 4-6 h with a final concentration of 2-5 μCi/ml [^3H]thymidine added at the times and for the periods indicated in the figure legends. The cells were washed, and the incorporation of [^3H]thymidine into acid insoluble material was determined as previously described. Den-Heijer, M. et al. (1996), Hyperhomocystinemia as a risk factor for deep-vein thrombosis. N. Eng. J. Med. 334(12):759-762.

[4] = test system: TA-VSMCs; assay: [3H]thymidine labeling (DNA synthesis) in TA-VSMCs; format: cell-based; conditions: 0.1 to 1 mM
Source text: Effect of calcium channel activation on DNA synthesis. Effect of glutamate receptor calcium channels and L-type calcium channels activation was examined by measuring [^3H]thymidine labeling.

[5] = test system: c-myb; assay: c-myb expression in TA-VSMCs; format: cell-based
[6] = test system: mouse aortic smooth muscle cells; assay: 3H thymidine uptake / mitogenic effect in mouse aortic smooth muscle cells; format: cell-based
Experimental: The mitogenic and other effects of growth factors are exaggerated in late embryonic or fetal smooth muscle cells, and cells in the late fetal state provide a high contrast picture of their subsequent, post-natal, responses. To take advantage of this effect, late fetal C57BL/6×129 mice were obtained and aortic smooth muscle cell cultures were prepared according to the inventors' previously published methods set forth above. These cells were treated with a series of Hcy dilutions (10 μM-100 μM) as described above. […] Subsequently, the fetal mouse smooth muscle cells were treated with a number of variations of the incubation medium containing the Hcy. In no case did Hcy produce a measurable mitogenic effect. […] Aortic smooth muscle cells were obtained from mice of this strain that were 3-6 months old, and were treated with various concentrations of Hcy.

[7] = test system: Rabbit aortic smooth muscle cells; assay: Calcium uptake in rabbit aortic smooth muscle cells; format: cell-based; conditions: 10μM for 40 seconds
Experimental: For each of the following experiments, aortic smooth muscle cells were obtained from 2-3 lb. New Zealand rabbits; these cells were cultured as described above, and evaluated for their responses to Hcy. […] This response is similar to that of the embryonic cells (see above).

[8] = test system: Myb protein; assay: Expression of Myb protein in rabbit aortic cells; format: cell-based
Experimental: (§3) For each of the following experiments, aortic smooth muscle cells were obtained from 2-3 lb. New Zealand rabbits; these cells were cultured as described above, and evaluated for their responses to Hcy.

[9] = test system: Rabbit aortic cells; assay: Mitogenesis in rabbit aortic cells; format: cell-based
Experimental: as §3

[10] = test system: VSMC isolated from abdominal; assay: [3H]thymidine incorporation (DNA synthesis) in abdominal aorta VSMC; format: cell-based, chicken; conditions: abdominal VSMC compared with N-VSMC
Source text: as §1, §2

N[C@@H](CCS)C(=O)O [homocysteine]
distribution of PKC activity [1]: significant increase in membrane-associated PKC
protein bound H[cys] in the microsomal fraction [2]: 50%
DNA synthesis increased ([3]; N-VSMC incubated with 0.01 to 4000 μM homocysteine, dose dependent and saturable): 12 fold
DNA synthesis at high concentration ([3]; homocysteine concentrations above 300 μM): completely suppressed
DNA synthesis increased ([3]; neural crest derived smooth muscle cells): 5 fold
DNA synthesis increased [4]: 6 fold
c-myb synthesis [5]: dose-dependent increase
concentration of maximal effect on c-myb synthesis [5]: < 2.5 mM
mitogenic effect ([6]; adult C57Bl/6 mice 3-6 months old, various concentrations, listed as Hcy): no mitogenic effect; also recorded: No mitogenic result
3H thymidine uptake ([6]; late fetal C57BL/6×129 mice, 10 μM-100 μM): no enhancement
calcium flux [7]: significant calcium flux
expression of the Myb protein [8]: dose-responsive expression
mitogenic response [9]: robust mitogenic response
effect on DNA synthesis [10]: did not respond similarly
